Experimental data as given in ChEMBL document CHEMBL1142994, “Structure-based design, synthesis, and biological evaluation of potent and selective macrocyclic checkpoint kinase 1 inhibitors” (J Med Chem, 2007).

What was measured:
[1] = target: T1, Serine/threonine-protein kinase Chk1 (Homo sapiens, UniProt O14757); assay: Inhibition of recombinant Chk1
T1 sequence (O14757 whole entry): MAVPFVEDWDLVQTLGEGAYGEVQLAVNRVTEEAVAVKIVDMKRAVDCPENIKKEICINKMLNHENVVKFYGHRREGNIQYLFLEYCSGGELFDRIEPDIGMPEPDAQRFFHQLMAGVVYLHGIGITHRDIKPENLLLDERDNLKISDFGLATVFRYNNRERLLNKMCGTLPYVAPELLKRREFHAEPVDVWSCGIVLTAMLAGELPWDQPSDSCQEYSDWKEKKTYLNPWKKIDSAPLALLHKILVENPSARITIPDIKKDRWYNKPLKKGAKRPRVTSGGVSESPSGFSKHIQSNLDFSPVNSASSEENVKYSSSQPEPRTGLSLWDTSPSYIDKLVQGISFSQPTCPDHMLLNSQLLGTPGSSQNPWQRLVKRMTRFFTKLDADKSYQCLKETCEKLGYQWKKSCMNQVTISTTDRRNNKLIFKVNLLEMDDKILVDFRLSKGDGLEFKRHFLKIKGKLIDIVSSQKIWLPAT

HeLa [2] = assay: Cytotoxicity against HeLa cells in presence of doxorubicin by MTS assay; format: functional, cell-based, Homo sapiens
NCI-H1299 [3] = assay: Accumulation of H1299 cells in G2/M phase measured as cell cycle arrest by FACS assay; format: functional, cell-based, Homo sapiens
NCI-H1299 [4] = assay: Inhibition of accumulation of H1299 cells in G2/M phase in presence of doxorubicin by FACS assay; format: functional, cell-based, Homo sapiens
HeLa [5] = assay: Cytotoxicity against HeLa cells by MTS assay; format: functional, cell-based, Homo sapiens
[6] = target: T2, Calcium/calmodulin-dependent protein kinase type IV (Homo sapiens, UniProt Q16566); assay: Inhibition of Camk4
T2 sequence (Q16566 whole entry): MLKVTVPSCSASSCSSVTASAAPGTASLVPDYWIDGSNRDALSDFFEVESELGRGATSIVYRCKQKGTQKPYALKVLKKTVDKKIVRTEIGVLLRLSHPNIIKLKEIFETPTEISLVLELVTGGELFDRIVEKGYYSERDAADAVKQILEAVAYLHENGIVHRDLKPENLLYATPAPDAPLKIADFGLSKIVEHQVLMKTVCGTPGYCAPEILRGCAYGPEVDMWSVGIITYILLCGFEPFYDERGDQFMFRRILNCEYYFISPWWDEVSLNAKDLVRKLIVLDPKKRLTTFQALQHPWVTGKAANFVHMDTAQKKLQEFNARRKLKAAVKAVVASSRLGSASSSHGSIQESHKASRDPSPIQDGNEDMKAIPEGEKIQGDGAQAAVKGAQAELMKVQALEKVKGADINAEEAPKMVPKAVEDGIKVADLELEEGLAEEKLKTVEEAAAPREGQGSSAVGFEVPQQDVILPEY

[7] = target: T3, Serine/threonine-protein kinase Sgk1 (Homo sapiens, UniProt O00141); assay: Inhibition of SGK
T3 sequence (O00141 whole entry): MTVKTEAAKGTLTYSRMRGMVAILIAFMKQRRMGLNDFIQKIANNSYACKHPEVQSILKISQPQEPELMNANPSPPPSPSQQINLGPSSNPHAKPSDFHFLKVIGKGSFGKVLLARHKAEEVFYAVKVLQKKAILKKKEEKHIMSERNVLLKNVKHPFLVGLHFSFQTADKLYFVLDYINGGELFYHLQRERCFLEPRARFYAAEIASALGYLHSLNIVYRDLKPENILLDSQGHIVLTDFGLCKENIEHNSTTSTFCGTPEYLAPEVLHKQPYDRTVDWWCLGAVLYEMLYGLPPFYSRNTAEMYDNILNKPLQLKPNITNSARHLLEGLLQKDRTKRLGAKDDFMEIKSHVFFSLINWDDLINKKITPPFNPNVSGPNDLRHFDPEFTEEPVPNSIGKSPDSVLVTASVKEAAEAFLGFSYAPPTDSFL

[8] = target: T4, Mitogen-activated protein kinase 13 (Homo sapiens, UniProt O15264); assay: Inhibition of p38 delta
T4 sequence (O15264 whole entry): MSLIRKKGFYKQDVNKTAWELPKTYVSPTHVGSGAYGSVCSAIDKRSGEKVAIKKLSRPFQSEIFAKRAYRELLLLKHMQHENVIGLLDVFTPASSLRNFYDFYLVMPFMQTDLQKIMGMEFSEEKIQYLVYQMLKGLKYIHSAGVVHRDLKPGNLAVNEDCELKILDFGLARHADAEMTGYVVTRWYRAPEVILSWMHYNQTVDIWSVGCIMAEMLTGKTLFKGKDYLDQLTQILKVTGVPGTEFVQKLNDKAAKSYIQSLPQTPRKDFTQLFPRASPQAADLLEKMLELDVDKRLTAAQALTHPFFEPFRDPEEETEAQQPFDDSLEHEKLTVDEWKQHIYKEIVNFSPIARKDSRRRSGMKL

[9] = Homo sapiens, HeLa, read-out: EC50

CC(O)C#Cc1cc2c(cc1Cl)NC(=O)Nc1cnc(C#N)c(n1)OCCCCCO2 (stereo not drawn)
IC50 [1]: 26 nM

N#Cc1ncc2nc1OCCCCCOc1cc(CC(O)CO)c(Cl)cc1NC(=O)N2 (stereo not drawn)
IC50 [1]: 5 nM

CCN(CC)CC#Cc1cc2c(cc1Cl)NC(=O)Nc1cnc(C#N)c(n1)OCCCCCO2
IC50 [1]: 2 nM

CN(C)CCOc1cc2c(cc1Cl)NC(=O)Nc1cnc(C#N)c(n1)OCCCCCO2
IC50 [1]: 1 nM

CC(C)CCOc1cc2c(cc1Cl)NC(=O)Nc1cnc(C#N)c(n1)OCCCCCO2
IC50 [1]: 1060 nM

N#Cc1ncc2nc1OCCCCCOc1cc(C#CCO)c(Cl)cc1NC(=O)N2
IC50 [1]: 10 nM

N#Cc1ncc2nc1OCCCCCOc1cc(OCCn3ccnc3)c(Cl)cc1NC(=O)N2
IC50 [1]: 3 nM

N#Cc1ncc2nc1OCCCCCOc1ccc(Cl)cc1NC(=O)N2
EC50 (HeLa [2]; Homo sapiens, HeLa): 3040 nM
IC50 [1]: 7 nM
EC50 (NCI-H1299 [3]; Homo sapiens, NCI-H1299): > 10000 nM
EC50 (NCI-H1299 [4]; Homo sapiens, NCI-H1299): 2700 nM
EC50 (HeLa [5]): 57600 nM

CC(C)Nc1cc2c(cc1Cl)NC(=O)Nc1cnc(C#N)c(n1)OCCCCCO2
IC50 [1]: 11 nM

N#Cc1ncc2nc1OCCCCCOc1cc(NCc3ccncc3)c(Cl)cc1NC(=O)N2
EC50 (HeLa [2]; hela): 1400 nM
IC50 [1]: 13 nM
EC50 (NCI-H1299 [3]; nci-h1299): > 10000 nM
EC50 (NCI-H1299 [4]; nci-h1299): 1200 nM
EC50 (HeLa [5]; hela, read-out: EC50): > 59000 nM

CN(C)CC(=O)Nc1cc2c(cc1Cl)NC(=O)Nc1cnc(C#N)c(n1)OCCCCCO2
IC50 [1]: 1 nM

CCNc1cc2c(cc1Cl)NC(=O)Nc1cnc(C#N)c(n1)OCCCCCO2
IC50 [1]: 4 nM

N#Cc1ncc2nc1OCCCCCOc1cc(OCc3cccnc3)c(Cl)cc1NC(=O)N2
IC50 [1]: 9 nM

N#Cc1ncc2nc1OCCCCCOc1cc(OCc3ccccn3)c(Cl)cc1NC(=O)N2
IC50 [1]: 63 nM

N#Cc1ncc2nc1OCCCCCOc1cc(NCCO)c(Cl)cc1NC(=O)N2
IC50 [1]: 2 nM

N#Cc1ncc2nc1OCCCCCOc1cc(NCc3ccccc3)c(Cl)cc1NC(=O)N2
IC50 [1]: 266 nM

CC(=O)Nc1cc2c(cc1Cl)NC(=O)Nc1cnc(C#N)c(n1)OCCCCCO2
IC50 [1]: 7 nM

CCOc1cc2c(cc1Cl)NC(=O)Nc1cnc(C#N)c(n1)OCCCCCO2
IC50 [1]: 6 nM

N#Cc1ncc2nc1OCCCCCOc1cc(OCc3ccncc3)c(Cl)cc1NC(=O)N2
IC50 [1]: 12 nM

N#Cc1ncc2nc1OCCCCCOc1cc(NCc3cncs3)c(Cl)cc1NC(=O)N2
EC50 (HeLa [2]; Homo sapiens, HeLa): 1200 nM
IC50 [1]: 6 nM
EC50 (NCI-H1299 [3]; Homo sapiens, NCI-H1299): > 10000 nM
EC50 (NCI-H1299 [4]; Homo sapiens, NCI-H1299): 110 nM
EC50 (HeLa [5]; [9]): > 59000 nM

N#Cc1ncc2nc1OCCCCCOc1cc(CCCO)c(Cl)cc1NC(=O)N2
EC50 (HeLa [2]; Homo sapiens, HeLa): 860 nM
EC50 (NCI-H1299 [3]; Homo sapiens, NCI-H1299): > 10000 nM
Ki [6]: > 10000 nM
Ki [7]: > 10000 nM
EC50 (NCI-H1299 [4]; Homo sapiens, NCI-H1299): 190 nM
EC50 (HeLa [5]; [9]): 28700 nM

CS(=O)(=O)Nc1cc2c(cc1Cl)NC(=O)Nc1cnc(C#N)c(n1)OCCCCCO2
EC50 (HeLa [2]; Homo sapiens, HeLa): 2700 nM
EC50 (NCI-H1299 [3]; Homo sapiens, NCI-H1299): > 10000 nM
Ki [6]: > 10000 nM
Ki [8]: > 10000 nM
Ki [7]: > 10000 nM
EC50 (NCI-H1299 [4]; Homo sapiens, NCI-H1299): 1600 nM
EC50 (HeLa [5]; [9]): > 59000 nM

N#Cc1ncc2nc1OCCCCCOc1cc(N3CCCCC3)c(Cl)cc1NC(=O)N2
IC50 [1]: 139 nM

O=C1Nc2cncc(n2)OCCCCCOc2ccc(Cl)cc2N1
EC50 (HeLa [2]; Homo sapiens, HeLa): 37800 nM
IC50 [1]: 10 nM
EC50 (NCI-H1299 [3]; Homo sapiens, NCI-H1299): > 10000 nM
EC50 (NCI-H1299 [4]; Homo sapiens, NCI-H1299): 7500 nM
EC50 (HeLa [5]): >59000 nM

CCCCNc1cc2c(cc1Cl)NC(=O)Nc1cnc(C#N)c(n1)OCCCCCO2
IC50 [1]: 15 nM

N#Cc1ncc2nc1OCCCCCOc1cc(NCc3ccsc3)c(Cl)cc1NC(=O)N2
IC50 [1]: 162 nM

N#Cc1ncc2nc1OCCCCCOc1cc(NC(=O)CCNC3CCCC3)c(Cl)cc1NC(=O)N2
IC50 [1]: 2 nM

N#Cc1ncc2nc1OCCCCCOc1cc(N(CCO)CCO)c(Cl)cc1NC(=O)N2
IC50 [1]: 4 nM

CNc1cc2c(cc1Cl)NC(=O)Nc1cnc(C#N)c(n1)OCCCCCO2
IC50 [1]: 2 nM

CC(C)Oc1cc2c(cc1Cl)NC(=O)Nc1cnc(C#N)c(n1)OCCCCCO2
IC50 [1]: 13 nM

CC(C)CNc1cc2c(cc1Cl)NC(=O)Nc1cnc(C#N)c(n1)OCCCCCO2
IC50 [1]: 17 nM

N#Cc1ncc2nc1OCCCCCOc1cc(OCCCO)c(Cl)cc1NC(=O)N2
Ki [6]: > 10000 nM
Ki [8]: > 10000 nM
Ki [7]: > 10000 nM

N#Cc1ncc2nc1OCCCCCOc1cc(OCCCN)c(Cl)cc1NC(=O)N2
IC50 [1]: 1 nM

N#Cc1ncc2nc1OCCCCCOc1cc(NCc3cccnc3)c(Cl)cc1NC(=O)N2
EC50 (HeLa [2]; hela): 1600 nM
IC50 [1]: 12 nM
EC50 (NCI-H1299 [3]; nci-h1299): > 10000 nM
EC50 (NCI-H1299 [4]; nci-h1299): 330 nM
EC50 (HeLa [5]; hela, read-out: EC50): > 59000 nM

N#Cc1ncc2nc1OCCCCCOc1cc(N)c(Cl)cc1NC(=O)N2
EC50 (HeLa [2]; Homo sapiens, HeLa): 430 nM
IC50 [1]: 3 nM
EC50 (NCI-H1299 [3]; Homo sapiens, NCI-H1299): 7600 nM
EC50 (NCI-H1299 [4]; Homo sapiens, NCI-H1299): 240 nM
EC50 (HeLa [5]; [9]): > 59000 nM

COCCOc1cc2c(cc1Cl)NC(=O)Nc1cnc(C#N)c(n1)OCCCCCO2
IC50 [1]: 5 nM

N#Cc1ncc2nc1OCCCCCOc1cc(NCc3cnco3)c(Cl)cc1NC(=O)N2
IC50 [1]: 7 nM

N#Cc1ncc2nc1OCCCCCCOc1ccc(Cl)cc1NC(=O)N2
IC50 [1]: 28 nM

CC(C)CCCOc1cc2c(cc1Cl)NC(=O)Nc1cnc(C#N)c(n1)OCCCCCO2
IC50 [1]: > 10000 nM

N#Cc1ncc2nc1OCCCCOc1ccc(Cl)cc1NC(=O)N2
EC50 (HeLa [2]; Homo sapiens, HeLa): 3080 nM
IC50 [1]: 6 nM
EC50 (NCI-H1299 [3]; Homo sapiens, NCI-H1299): > 10000 nM
EC50 (HeLa [5]): 57600 nM

Cn1cncc1CNc1cc2c(cc1Cl)NC(=O)Nc1cnc(C#N)c(n1)OCCCCCO2
IC50 [1]: 2 nM

N#Cc1ncc2nc1OCCCCCOc1cc(O)c(Cl)cc1NC(=O)N2
EC50 (HeLa [2]; Homo sapiens, HeLa): 1900 nM
IC50 [1]: 6 nM
EC50 (HeLa [5]; [9]): > 59000 nM

COCCOCCOc1cc2c(cc1Cl)NC(=O)Nc1cnc(C#N)c(n1)OCCCCCO2
IC50 [1]: 9 nM

CC(C)(O)C#Cc1cc2c(cc1Cl)NC(=O)Nc1cnc(C#N)c(n1)OCCCCCO2
IC50 [1]: 109 nM

CN(C)c1cc2c(cc1Cl)NC(=O)Nc1cnc(C#N)c(n1)OCCCCCO2
IC50 [1]: 7 nM

N#Cc1ncc2nc1OCCCCCOc1cc(OCCO)c(Cl)cc1NC(=O)N2
EC50 (HeLa [2]; Homo sapiens, HeLa): 3010 nM
EC50 (NCI-H1299 [3]; Homo sapiens, NCI-H1299): > 10000 nM
EC50 (NCI-H1299 [4]; Homo sapiens, NCI-H1299): 700 nM
EC50 (HeLa [5]; [9]): > 59000 nM

CCN(CC)c1cc2c(cc1Cl)NC(=O)Nc1cnc(C#N)c(n1)OCCCCCO2
IC50 [1]: 248 nM

N#Cc1ncc2nc1OCCCCCOc1cc(NCc3c[nH]cn3)c(Cl)cc1NC(=O)N2
IC50 [1]: 231 nM
